From US7851637B2, “Compounds and methods for inhibiting the interaction of BCL proteins with binding partners” (Infinity Pharmaceuticals, Inc., priority 2004, dated 2010)

How the values were obtained:
[1] = molecular target: Bcl-xL (Homo sapiens, UniProt Q07817); assay: Bcl-xL binding affinity analysis (fluorescence polarization binding assay); set-up: scale not given here
From the text: (§1) Bcl-2 and Bcl-xL binding can be determined using a variety of known methods. One such assay is a sensitive and quantitative in vitro binding assay using fluorescence polarization (FP) described by Wang, J. -L.; Zhang, Z -J.; Choksi, S.; Sjam. S.; Lu, Z.; Croce, C. M.; Alnenri, E. S.; Komgold, R.; Huang, Z. Cell permeable Bcl-2 binding peptides: a chemical approach to apoptosis induction in tumor cells. Cancer Res. 2000, 60, 1498-1502).
(§2) Bcl-2 and Bcl-xL binding affinity analysis data is presented below for various compounds of the invention.

[2] = molecular target: Bcl-2 (Homo sapiens, UniProt P10415); assay: Bcl-2 binding affinity analysis (fluorescence polarization binding assay)
From the text: as §1, §2

Chain of Bcl-xL (Q07817 whole entry): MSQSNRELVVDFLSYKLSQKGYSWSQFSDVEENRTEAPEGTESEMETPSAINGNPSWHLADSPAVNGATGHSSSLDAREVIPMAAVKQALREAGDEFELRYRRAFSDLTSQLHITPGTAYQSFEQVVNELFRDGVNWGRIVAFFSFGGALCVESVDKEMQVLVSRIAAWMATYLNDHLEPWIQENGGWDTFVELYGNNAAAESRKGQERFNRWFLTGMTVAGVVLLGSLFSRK
Chain of Bcl-2 (P10415 whole entry): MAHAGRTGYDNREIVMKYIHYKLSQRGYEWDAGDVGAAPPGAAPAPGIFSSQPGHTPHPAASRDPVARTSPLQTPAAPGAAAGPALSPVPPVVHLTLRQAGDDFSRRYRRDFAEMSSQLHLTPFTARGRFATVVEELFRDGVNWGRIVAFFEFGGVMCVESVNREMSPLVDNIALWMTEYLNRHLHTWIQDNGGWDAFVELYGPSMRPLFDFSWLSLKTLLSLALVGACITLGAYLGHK

SMILES	Bcl-XL binding affinity Ki [1]	Ki [2]
CCN(CC)CCN(CCN(CC)CC)C(=O)c1ccc(-c2cccc(CN3O[C@@H](CO)[C@@H]([C@H](C)O)[C@H]3C(=O)N[C@H]3C[C@H]4C[C@@H]([C@@H]3C)C4(C)C)c2)cc1 [Compound 188]	♯	< 0.8 µM
C[C@@H]1[C@@H](NC(=O)[C@@H]2[C@H]([C@H](C)O)[C@H](CO)ON2Cc2cccc(-c3cccc([S+](C)[O-])c3)c2)C[C@H]2C[C@@H]1C2(C)C (stereo partly shown) [Compound 202]	♯	< 0.8 µM
CC(O)C1C(CO)ON(Cc2cccc(CN(CCN(C)C)Cc3ccccc3N3CCOCC3)c2)C1C(=O)NC1CC2CC(C1C)C2(C)C (stereo not shown) [Compound 364]	♯	< 0.8 µM
COCCNC(=O)c1cccc(-c2cccc(CN3O[C@@H](CO)[C@@H]([C@H](C)O)[C@H]3C(=O)N[C@H]3C[C@H]4C[C@@H]([C@@H]3C)C4(C)C)c2)c1 [Compound 153]	♯	< 0.8 µM
C[C@@H](O)[C@H]1[C@@H](CO)ON(Cc2cccc(C#CCNC(=O)c3ccccc3)c2)[C@H]1C(=O)NCCCCc1ccccc1 [Compound 64]	♯	0.8 to 6 µM
C[C@@H]1[C@@H](NC(=O)[C@@H]2[C@H]([C@H](C)O)[C@H](CO)ON2Cc2cccc(N3CCN(C(=O)NCc4ccccc4)CC3)c2)C[C@H]2C[C@@H]1C2(C)C [Compound 260]	♯	< 0.8 µM
C[C@@H]1[C@@H](NC(=O)[C@@H]2[C@H]([C@H](C)O)[C@H](CO)ON2Cc2cccc(NCCCN(C)C)c2)C[C@H]2C[C@@H]1C2(C)C [Compound 582]	♯	< 0.8 µM
CC(C)CC(CN(C)C)N(Cc1cccc(CN2OC(CO)C(C(C)O)C2C(=O)NC2CC3CC(C2C)C3(C)C)c1)Cc1ccccc1N1CCN(C)CC1 (stereo not shown) [Compound 315]	♯	< 0.8 µM
C[C@@H]1[C@@H](NC(=O)[C@@H]2[C@H]([C@H](C)O)[C@H](CO)ON2Cc2cccc(-c3ccc(S(N)(=O)=O)cc3)c2)C[C@H]2C[C@@H]1C2(C)C [Compound 120]	♯♯	< 0.8 µM
C[C@@H](O)[C@H]1[C@@H](CO)ON(Cc2cccc(C#CC(O)c3ccc(-c4ccccn4)cc3)c2)[C@H]1C(=O)NCCCN(C)c1ccccc1 (stereo partly shown) [Compound 252]	♯	< 0.8 µM
CC(C)CC(CN(C)C)NCc1cccc(CN2O[C@@H](CO)C([C@H](C)O)[C@H]2C(=O)NC2CC3CC([C@@H]2C)C3(C)C)c1 (stereo partly shown) [Compound 223]	♯	< 0.8 µM
CC(C)C[C@@H](CN(C)C)N(Cc1ccccc1)Cc1cccc(CN2O[C@@H](CO)[C@@H]([C@H](C)O)[C@H]2C(=O)NCc2ccc(Oc3ccccc3)cc2)c1 [Compound 530]	♯	0.8 to 6 µM
C[C@H](O)[C@@H]1[C@H](CO)ON(Cc2cccc(CN(CCN(C)C)Cc3ccccc3)c2)[C@@H]1C(=O)N[C@H](C)c1ccc2ccccc2c1 [Compound 522]	♯	0.8 to 6 µM
CCCNC(=O)c1ccc(-c2cccc(CN3O[C@@H](CO)[C@@H]([C@H](C)O)[C@H]3C(=O)N[C@H]3C[C@H]4C[C@@H]([C@@H]3C)C4(C)C)c2)cc1 [Compound 299]	♯	< 0.8 µM
C[C@@H](O)[C@@H]1C(C(=O)NCCCn2cnc3ccccc32)N(Cc2cccc(C#CCNC(=O)c3ccccc3)c2)O[C@@H]1CO (stereo partly shown) [Compound 55]	♯♯	> 50 µM
C[C@@H]1[C@@H](NC(=O)[C@@H]2[C@H]([C@H](C)O)[C@H](CO)ON2Cc2cccc(-c3cccc(C(=O)NCCc4c[nH]cn4)c3)c2)C[C@H]2C[C@@H]1C2(C)C [Compound 127]	♯♯	< 0.8 µM
CSc1ccccc1CN(Cc1cccc(CN2OC(CO)C(C(C)O)C2C(=O)NC2CC3CC(C2C)C3(C)C)c1)C(CC(C)C)CN(C)C (stereo not shown) [Compound 330]	♯	< 0.8 µM
C[C@@H]1[C@@H](NC(=O)[C@@H]2[C@H]([C@H](C)O)[C@H](CO)ON2Cc2cccc(-c3cccc(C(=O)N4CCCN(C)CC4)c3)c2)C[C@H]2C[C@@H]1C2(C)C [Compound 125]	♯♯	< 0.8 µM
COc1cccc(CN(Cc2cccc(CN3OC(CO)C(C(C)O)C3C(=O)NC3CC4CC(C3C)C4(C)C)c2)C(CC(C)C)CN(C)C)c1OC (stereo not shown) [Compound 304]	♯	< 0.8 µM

SMILES	Bcl-XL binding affinity Ki [1]	Ki [2]
C[C@H](O)[C@@H]1[C@H](CO)ON(Cc2cccc(CN(CCN(C)C)Cc3ccccc3)c2)[C@@H]1C(=O)NCCc1cccc(Br)c1 [Compound 514]	♯	0.8 to 6 µM
CC(C)CCNC(=O)[C@@H]1[C@H]([C@H](C)O)[C@H](CO)ON1Cc1cccc(CN(Cc2ccccc2)[C@@H](CC(C)C)CN(C)C)c1 [Compound 533]	♯	0.8 to 6 µM
COc1ccc(C(O)C#Cc2cccc(CN3O[C@H](CO)[C@H]([C@@H](C)O)[C@@H]3C(=O)NCCCN(C)c3ccccc3)c2)c(C)c1 (stereo partly shown) [Compound 247]	♯	< 0.8 µM
C[C@@H]1[C@@H](NC(=O)[C@@H]2[C@H]([C@H](C)O)[C@H](CO)ON2Cc2cccc(-c3cccc(C(=O)NCCCN4CCCCC4)c3)c2)C[C@H]2C[C@@H]1C2(C)C [Compound 111]	♯	< 0.8 µM
CC(O)C1C(CO)ON(Cc2cccc(C(=O)N(CCN(C)C)Cc3ccccc3)c2)C1C(=O)NC1CC2CC(C1C)C2(C)C (stereo not shown) [Compound 504]	♯	< 0.8 µM
COc1cccc(CN(CCN(C)C)Cc2cccc(CN3OC(CO)C(C(C)O)C3C(=O)NC3CC4CC(C3C)C4(C)C)c2)c1 (stereo not shown) [Compound 381]	♯	< 0.8 µM
Cc1cc(-c2cccc(CN3O[C@@H](CO)[C@@H]([C@H](C)O)[C@H]3C(=O)N[C@H]3C[C@H]4C[C@@H]([C@@H]3C)C4(C)C)c2)ccc1C(=O)N(C)C [Compound 150]	♯♯	< 0.8 µM
C[C@@H]1[C@@H](NC(=O)[C@@H]2[C@H]([C@H](C)O)[C@H](CO)ON2Cc2cccc(CN(CCCc3ccccc3)CCN(C)C)c2)C[C@H]2C[C@@H]1C2(C)C [Compound 205]	♯	< 0.8 µM
CC(C)CNC(=O)[C@@H]1[C@H]([C@H](C)O)[C@H](CO)ON1Cc1cccc(CN(Cc2ccccc2)[C@@H](CC(C)C)CN(C)C)c1 [Compound 540]	♯	6 to 50 µM
C[C@@H]1[C@@H](NC(=O)[C@@H]2[C@H]([C@H](C)O)[C@H](CO)ON2Cc2cccc(-c3cccc(C(=O)N[C@H]4CCN(C)C4)c3)c2)C[C@H]2C[C@@H]1C2(C)C [Compound 126]	♯	< 0.8 µM
C[C@@H]1[C@@H](NC(=O)[C@@H]2C([C@H](C)O)[C@H](CO)ON2Cc2cccc(CN(CCN(C)C)Cc3ccccc3N3CCCCC3)c2)C[C@H]2C[C@@H]1C2(C)C (stereo partly shown) [Compound 410]	♯	< 0.8 µM
CC(O)C1C(CO)ON(Cc2cccc(C(=O)NC(CN(C)C)c3ccccc3)c2)C1C(=O)NC1CC2CC(C1C)C2(C)C (stereo not shown) [Compound 506]	♯	< 0.8 µM
CC(C)C[C@@H](CN(C)C)NCc1cccc(CN2O[C@@H](CO)C([C@H](C)O)[C@H]2C(=O)N[C@H]2C[C@H]3C[C@@H]([C@@H]2C)C3(C)C)c1 (stereo partly shown) [Compound 552]	♯	0.8 to 6 µM
C[C@@H](O)[C@H]1[C@@H](CO)ON(Cc2cccc(C#CC(O)c3ccccc3Cl)c2)[C@H]1C(=O)NCCCN(C)c1ccccc1 (stereo partly shown) [Compound 33]	♯♯	0.8 to 6 µM
C[C@H](O)[C@@H]1[C@H](CO)ON(Cc2cccc(N3CCN(C(=O)OCc4ccccc4)CC3)c2)[C@@H]1C(=O)NC1C[C@H]2C[C@@H]([C@@H]1C)C2(C)C (stereo partly shown) [Compound 253]	♯	< 0.8 µM
C[C@@H](O)[C@H]1[C@@H](CO)ON(Cc2cccc(C#CC(O)Cc3ccccc3)c2)[C@H]1C(=O)NCCCN(C)c1ccccc1 (stereo partly shown) [Compound 39]	♯♯	0.8 to 6 µM
COCCNC(=O)[C@@H]1[C@H]([C@H](C)O)[C@H](CO)ON1Cc1cccc(CN(Cc2ccccc2)[C@@H](CC(C)C)CN(C)C)c1 [Compound 535]	♯	6 to 50 µM
COc1cccc(O)c1CN(Cc1cccc(CN2OC(CO)C(C(C)O)C2C(=O)NC2CC3CC(C2C)C3(C)C)c1)C(CC(C)C)CN(C)C (stereo not shown) [Compound 336]	♯	< 0.8 µM
Cc1ccccc1CN(CCN(C)C)Cc1cccc(CN2OC(CO)C(C(C)O)C2C(=O)NC2CC3CC(C2C)C3(C)C)c1 (stereo not shown) [Compound 372]	♯	< 0.8 µM
